Reference: paper PMC3348135, “Identification of New Agonists and Antagonists of the Insect Odorant Receptor Co-Receptor Subunit” (PLoS ONE, 2012)
Read-outs that look alike come from different tables or passages of the source.

Key:
Cqui\Orco + Cqui\Or10 [1] = target: T1, Cqui\Orco + Cqui\Or10 (Culex quinquefasciatus, UniProt D5LMR7+Q309I4); experiment: Activation of Cqui\Orco + Cqui\Or10 in Xenopus oocytes, two-electrode voltage clamp; type: cell-based; conditions: for Emax at 100 µM: 100 µM compound, mean ± SEM, n=3-8, read-out: Response amplitude as percentage of response to 100 µM OLC3, Cqui\Orco + Cqui\Or10
Method: (§1) Oocytes were surgically removed from mature Xenopus laevis frogs. Follicle cells were removed by treatment with Collagenase B (Boehringer Mannhem) for 2 hours at room temperature. Capped cRNA encoding each DmOR subunit was generated using mMessage mMachine kits (Ambion). For heteromeric ORs, 25 ng of cRNA encoding each OR subunit was injected into Stage V-VI Xenopus oocytes. For expression of Orco alone, 50 ng of cRNA was injected. Oocytes were incubated at 18°C in Barth’s saline (in mM: 88 NaCl, 1 KCl, 2.4 NaHCO3, 0.3 CaNO3, 0.41 CaCl2, 0.82 MgSO4, 15 HEPES, pH 7.6, and 150 µg/ml ceftazidime) for 2–5 days prior to electrophysiological recording.
(§2) Odorant and Orco ligand induced currents were recorded under two-electrode voltage clamp in Xenopus laevis oocytes expressing ORs, using an automated parallel electrophysiology system (OpusExpress 6000A; Molecular Devices). Oocytes were perfused with ND96 (in mM: 96 NaCl, 2 KCl, 1 CaCl2, 1 MgCl2, 5 HEPES, pH 7.5). Odorant stock solutions (0.5 or 1 M) and Orco ligand stock solutions (100 mM) were prepared in DMSO and diluted in ND96. Unless otherwise noted, applications were for 60 sec at a flow rate of 1.0 ml/min, with extensive washing in ND96 (9 or 20 min at 4.6 ml/min) between applications. Micropipettes were filled with 3 M KCl and had resistances of 0.2−2.0 MΩ. The holding potential was −70 mV. Current responses, filtered (4-pole, Bessel, low pass) at 20 Hz (−3 db) and sampled at 100 Hz, were captured and stored using OpusXpress 1.1 software (Molecular Devices).
(§3) Initial analysis of electrophysiological data was done using Clampfit 9.1 software (Molecular Devices). Curve fitting and statistical analyses were done using Prism 5 (Graphpad). Concentration-response data were fit to the equation: I = Imax/(1+(EC50/X)^n) where I represents the current response at a given concentration of odorant, X; Imax is the maximal response; EC50 is the concentration of agonist yielding a half maximal response; n is the apparent Hill coefficient. Concentration-inhibition data were fit to the equation: I = Imax/(1+(X/IC50)^n) where I represents the current response at a given concentration of inhibitor, X; Imax is the maximal response in the absence of inhibitor; IC50 is the concentration of inhibitor present that still allows a half maximal response from odorant; n is the apparent Hill coefficient. Statistical significance was assessed using a two-tailed unpaired t test, an F test, or a one-way analysis of variance followed by the Bonferroni’s post-test, as appropriate.

Cqui\Orco + Cqui\Or10 [2] = target: T1, Cqui\Orco + Cqui\Or10; parameters: method as in PMID 20623327; conditions: read-out: EC50 for activation of Cqui\Orco+Cqui\Or10 by 3-methylindole; cited from earlier work
Dmel\Orco + Dmel\Or35a = target: T2, Dmel\Orco + Dmel\Or35a (Drosophila melanogaster, UniProt Q9VNB5); experiment: Agonist activation of Dmel\Orco + Dmel\Or35a in Xenopus oocytes, two-electrode voltage clamp; type: cell-based; conditions: for EC50: concentration-response, responses normalized to 30 µM OLC3; for Emax at 100 µM: read-out: Response amplitude as percentage of response to 100 µM OLC3, Dmel\Orco + Dmel\Or35a
T2 construct: expressed in transfected cells; host or cells: Xenopus laevis oocytes (cRNA injection, pGEMHE)
T2 sequence (Q9VNB5 1-486): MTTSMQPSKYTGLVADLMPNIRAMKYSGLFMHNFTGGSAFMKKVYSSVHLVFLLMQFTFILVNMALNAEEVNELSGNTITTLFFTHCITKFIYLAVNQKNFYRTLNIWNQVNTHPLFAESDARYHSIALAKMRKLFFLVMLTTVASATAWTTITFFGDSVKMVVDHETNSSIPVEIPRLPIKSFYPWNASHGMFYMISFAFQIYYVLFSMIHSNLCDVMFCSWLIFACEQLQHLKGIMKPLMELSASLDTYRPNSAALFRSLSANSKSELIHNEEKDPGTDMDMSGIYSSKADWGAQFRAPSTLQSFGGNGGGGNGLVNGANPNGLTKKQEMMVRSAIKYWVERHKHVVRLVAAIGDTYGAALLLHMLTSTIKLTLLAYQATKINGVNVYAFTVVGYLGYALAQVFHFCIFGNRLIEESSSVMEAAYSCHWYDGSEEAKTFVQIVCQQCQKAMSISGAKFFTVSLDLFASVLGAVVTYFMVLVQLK
T2 sequence (Q9V3Q2 1-409 partner): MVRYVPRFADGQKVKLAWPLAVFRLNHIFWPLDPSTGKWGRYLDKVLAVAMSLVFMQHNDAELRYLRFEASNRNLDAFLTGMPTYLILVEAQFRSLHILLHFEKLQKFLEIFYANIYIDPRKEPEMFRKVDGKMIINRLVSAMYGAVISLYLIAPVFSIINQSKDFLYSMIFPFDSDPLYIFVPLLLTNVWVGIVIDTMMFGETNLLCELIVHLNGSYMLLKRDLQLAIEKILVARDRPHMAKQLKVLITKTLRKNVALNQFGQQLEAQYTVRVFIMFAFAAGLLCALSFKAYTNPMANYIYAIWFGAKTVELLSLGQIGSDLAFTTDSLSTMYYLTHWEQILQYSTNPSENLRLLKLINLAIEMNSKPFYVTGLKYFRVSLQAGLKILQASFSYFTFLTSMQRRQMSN
Method: as §1, §2, §3

Dmel\Orco = target: T3, Dmel\Orco (Drosophila melanogaster, UniProt Q9VNB5); experiment: Agonist activation of homomeric Dmel\Orco in Xenopus oocytes, two-electrode voltage clamp; type: cell-based; conditions: for EC50: concentration-response, responses normalized to 30 µM OLC3, saturation not obtained for OLC3 and VUAA1; for Emax at 100 µM: read-out: Response amplitude as percentage of response to 100 µM OLC3, Dmel\Orco
T3 construct: expressed in transfected cells; host or cells: Xenopus laevis oocytes (cRNA injection, pGEMHE)
T3 sequence (Q9VNB5 1-486): T2 sequence (Q9VNB5 1-486)
Method: as §1, §2, §3

Cqui\Orco = experiment: Agonist activation of homomeric Cqui\Orco in Xenopus oocytes, two-electrode voltage clamp; type: cell-based, Culex quinquefasciatus; conditions: 100 µM compound; mean ± SEM, n=3-8
Onub\Orco + Onub\Or1 = experiment: Agonist activation of Onub\Orco + Onub\Or1 in Xenopus oocytes, two-electrode voltage clamp; type: cell-based, Ostrinia nubilalis; conditions: 100 µM compound; mean ± SEM, n=3-8
[3] = tested on: sham (water) injected oocytes; experiment: Response of sham (water) injected oocytes to Orco ligands; type: cell-based, Xenopus laevis; conditions: 100 µM, 60 sec application
Method: as §1, §2

[4] = Solubility in recording solution (observation); type: physicochemical; conditions: aqueous recording solution, higher concentrations (OLC2: above 100 µM)
Method: as §2

T1 sequence (D5LMR7 entry or part of it): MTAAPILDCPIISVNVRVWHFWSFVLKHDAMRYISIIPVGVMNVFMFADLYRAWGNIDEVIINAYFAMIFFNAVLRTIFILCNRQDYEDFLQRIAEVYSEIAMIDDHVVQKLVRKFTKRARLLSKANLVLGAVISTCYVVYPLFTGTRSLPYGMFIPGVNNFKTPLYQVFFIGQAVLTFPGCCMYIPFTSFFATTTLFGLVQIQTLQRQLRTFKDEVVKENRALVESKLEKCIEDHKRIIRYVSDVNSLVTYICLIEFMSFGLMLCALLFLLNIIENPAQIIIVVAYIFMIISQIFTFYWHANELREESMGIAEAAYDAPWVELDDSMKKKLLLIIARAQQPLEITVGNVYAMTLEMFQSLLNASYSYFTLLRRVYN
T1 sequence (Q309I4 entry or part of it): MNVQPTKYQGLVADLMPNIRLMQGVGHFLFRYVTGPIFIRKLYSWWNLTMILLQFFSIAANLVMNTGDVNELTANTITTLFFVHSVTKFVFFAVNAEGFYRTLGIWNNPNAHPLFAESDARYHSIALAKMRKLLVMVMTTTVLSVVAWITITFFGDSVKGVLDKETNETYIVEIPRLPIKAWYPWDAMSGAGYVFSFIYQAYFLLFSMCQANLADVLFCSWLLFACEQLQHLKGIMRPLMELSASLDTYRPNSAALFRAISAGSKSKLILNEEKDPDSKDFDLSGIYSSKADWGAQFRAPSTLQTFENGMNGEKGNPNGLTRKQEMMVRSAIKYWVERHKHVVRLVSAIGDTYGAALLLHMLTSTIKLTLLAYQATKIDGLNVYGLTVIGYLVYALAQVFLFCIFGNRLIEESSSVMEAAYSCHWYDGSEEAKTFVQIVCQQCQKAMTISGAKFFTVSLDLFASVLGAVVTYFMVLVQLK

Row | SMILES | EC50 (Cqui\Orco + Cqui\Or10 [1]; absence of OLC15, read-out: EC50 for 3-MI activation of Cqui\Orco + Cqui\Or10) [µM] | EC50 (Cqui\Orco + Cqui\Or10 [1]; in presence of 3 µM OLC15, read-out: EC50 for 3-MI activation of Cqui\Orco + Cqui\Or10 in presence of OLC15) [µM] | EC50 (Cqui\Orco + Cqui\Or10 [2]) [µM] | EC50 (Dmel\Orco + Dmel\Or35a) [µM] | Emax at 100 µM (Dmel\Orco + Dmel\Or35a) [%] | EC50 (Dmel\Orco) [µM] | Emax at 100 µM (Dmel\Orco) [%] | Emax at 100 µM (Cqui\Orco + Cqui\Or10 [1]) [%] | Response amplitude as percentage of response to 100 µM OLC3, Cqui\Orco (Cqui\Orco) [%] | Response amplitude as percentage of response to 100 µM OLC3, Onub\Orco + Onub\Or1 (Onub\Orco + Onub\Or1) [%] | Response of sham (water) injected oocytes [3] | Solubility [4]
1 | Cc1c[nH]c2ccccc12 [3-methylindole, reference compound] | 0.313 ± 0.103 | 0.275 ± 0.041 | 0.09 ± 0.017 | – | – | – | – | – | – | – | – | –
2 | CCc1ccc(NC(=O)CSc2nnc(-c3ccncc3)n2CC)cc1 [OLC3] | – | – | – | 56 ± 8 | 100 | 346 ± 126 | 100 | 100 | 100 | 100 | No responses | not fully soluble at higher concentrations
3 | CCn1c(SCC(=O)Nc2ccc(C(C)C)cc2)nnc1-c1ccncc1 [OLC12] | – | – | – | 18 ± 3 | 300 ± 41 | 35 ± 3 | 318 ± 12 | 289 ± 41 | 636 ± 78 | 306 ± 33 | No responses | –
4 | CCc1ccc(NC(=O)CSc2nnc(-c3cccnc3)n2CC)cc1 [VUAA1, reference compound] | – | – | – | 57 ± 13 | 50 ± 9 | 190 ± 30 | 24 ± 7 | 75 ± 3 | 18 ± 8 | 60 ± 6 | No responses | not fully soluble at higher concentrations
